Experimental data taken from US20250296967A1 (Ferring B.V., priority 2006, published 2025).

Legend:
[1] = Comparative release of synthetic growth factor analogues from a single scaffold (BCA, FIG. 5); assay type: physicochemical; details: 100 μg peptide/cc granule, 0.9% saline
Protocol: Methods for assaying peptide release from a single scaffold are as follows: 1 cc of granules were added to 1.2 mL of 0.9% saline or of peptide solution in 0.9% saline having a concentration of 100 μg B2A2-K-NS, LA2, or F2A4/cc granule. The granule-peptide solutions were swirled vigorously for 15 seconds every 5 minutes for 20 minutes. After swirling, the supernatant was removed and assayed via BCA or micro BCA assay for peptide content. The BCA value for each peptide was corrected relative to the BSA standard curve.
Referring now to FIG. 5, the shape of the release curve is similar for all three peptides (B2A2-K-NS (diamonds), LA2 (squares), and F2A4-K-NS (triangles)). However, the magnitude of the release is markedly different.

B2A2-K-NS [2] = assay: Release of B2A2-K-NS from peptide bound BRGs (ELISA); assay type: physicochemical; details: 0.9% saline
Protocol: The third step was to measure the amount of peptide released using the same ELISA assay. Briefly, the peptide bound BRGs were placed in 1 ml of 0.9% saline and the amount of peptide released was measured over a 72 hours period.

[3] = molecular target: T1, Type I, bovine-derived, dermal collagen sheets (Bos taurus, UniProt P02453+P02465); assay: Release of B2A2-K-NS from collagen (BCA); assay type: physicochemical; details: 0.9% saline
T1 construct: Type I, bovine-derived, dermal collagen sheets; from tissue; host or cells: bovine dermis
T1 sequence (P02453 162-1217 limits assumed): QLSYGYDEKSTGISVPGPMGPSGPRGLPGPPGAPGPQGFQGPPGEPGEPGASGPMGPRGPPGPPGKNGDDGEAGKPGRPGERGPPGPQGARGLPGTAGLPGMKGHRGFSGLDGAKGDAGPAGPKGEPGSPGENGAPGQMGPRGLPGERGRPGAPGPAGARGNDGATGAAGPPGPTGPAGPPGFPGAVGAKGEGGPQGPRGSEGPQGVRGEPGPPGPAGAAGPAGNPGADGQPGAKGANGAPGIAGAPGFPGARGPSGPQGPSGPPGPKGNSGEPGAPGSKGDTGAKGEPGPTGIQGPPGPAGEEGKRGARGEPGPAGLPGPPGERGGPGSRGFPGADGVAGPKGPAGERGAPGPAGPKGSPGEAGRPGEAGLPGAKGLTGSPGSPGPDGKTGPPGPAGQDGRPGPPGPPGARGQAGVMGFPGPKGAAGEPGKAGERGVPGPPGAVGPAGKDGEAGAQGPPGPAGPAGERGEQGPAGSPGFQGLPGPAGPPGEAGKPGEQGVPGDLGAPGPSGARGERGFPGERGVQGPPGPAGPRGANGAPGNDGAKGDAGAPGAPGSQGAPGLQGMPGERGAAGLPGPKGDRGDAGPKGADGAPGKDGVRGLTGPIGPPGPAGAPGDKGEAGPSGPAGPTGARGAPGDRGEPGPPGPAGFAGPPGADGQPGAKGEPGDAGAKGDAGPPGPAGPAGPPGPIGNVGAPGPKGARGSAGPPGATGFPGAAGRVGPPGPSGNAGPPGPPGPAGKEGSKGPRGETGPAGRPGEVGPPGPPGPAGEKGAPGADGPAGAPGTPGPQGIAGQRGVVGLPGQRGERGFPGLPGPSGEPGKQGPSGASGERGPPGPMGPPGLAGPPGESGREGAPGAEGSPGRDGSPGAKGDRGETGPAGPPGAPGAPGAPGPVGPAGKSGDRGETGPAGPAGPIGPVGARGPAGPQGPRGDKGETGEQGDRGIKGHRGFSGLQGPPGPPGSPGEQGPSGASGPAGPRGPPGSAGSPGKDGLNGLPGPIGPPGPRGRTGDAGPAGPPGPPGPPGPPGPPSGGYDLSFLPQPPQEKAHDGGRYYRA
T1 sequence (P02465 80-1117 limits assumed): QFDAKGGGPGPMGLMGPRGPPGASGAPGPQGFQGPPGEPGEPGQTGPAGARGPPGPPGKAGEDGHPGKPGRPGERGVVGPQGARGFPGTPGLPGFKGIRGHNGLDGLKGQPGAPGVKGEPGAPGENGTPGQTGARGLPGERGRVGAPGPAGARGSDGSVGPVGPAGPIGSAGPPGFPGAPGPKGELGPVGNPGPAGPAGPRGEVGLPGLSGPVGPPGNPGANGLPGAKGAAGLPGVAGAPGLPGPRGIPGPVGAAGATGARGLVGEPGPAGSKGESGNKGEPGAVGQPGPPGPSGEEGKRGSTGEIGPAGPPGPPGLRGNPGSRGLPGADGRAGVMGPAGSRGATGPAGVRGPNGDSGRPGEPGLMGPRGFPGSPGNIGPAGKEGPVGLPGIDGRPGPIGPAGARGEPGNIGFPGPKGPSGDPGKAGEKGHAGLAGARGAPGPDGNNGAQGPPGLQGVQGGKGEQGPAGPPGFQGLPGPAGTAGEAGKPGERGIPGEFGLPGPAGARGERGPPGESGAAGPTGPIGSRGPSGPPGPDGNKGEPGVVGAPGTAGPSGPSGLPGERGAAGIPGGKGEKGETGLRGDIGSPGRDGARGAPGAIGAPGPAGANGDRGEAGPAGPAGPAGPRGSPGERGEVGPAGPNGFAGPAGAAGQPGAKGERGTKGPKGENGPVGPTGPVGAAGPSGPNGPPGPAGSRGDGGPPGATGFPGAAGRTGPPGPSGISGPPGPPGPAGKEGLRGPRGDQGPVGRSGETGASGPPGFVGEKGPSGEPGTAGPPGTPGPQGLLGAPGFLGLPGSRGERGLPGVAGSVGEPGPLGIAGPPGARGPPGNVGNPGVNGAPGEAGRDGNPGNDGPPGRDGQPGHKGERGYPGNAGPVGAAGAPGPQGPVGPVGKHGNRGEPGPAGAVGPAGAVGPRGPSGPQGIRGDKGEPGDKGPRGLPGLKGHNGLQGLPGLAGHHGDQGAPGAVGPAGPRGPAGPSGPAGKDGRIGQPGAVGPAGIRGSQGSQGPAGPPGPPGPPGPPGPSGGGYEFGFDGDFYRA
Protocol: To initiate release, a vial containing collagen coated with B2A2-K-NS was replenished with 2 ml of 0.9% saline and placed on the rocking platform. After specified time interval, the supernatant was removed, filtered, and collected. A BCA assay was utilized to determine peptide concentrations. […] The BSA standard curve was generated by placing BSA in supernatant from the collagen sponge (without peptide).

[4] = Release of B2A2-K-NS from ceramic granules (BCA, cumulative release, FIG. 1); assay type: physicochemical; details: first 4 hour period, 0.9% saline
Protocol: Methods: After binding the peptide to the granules as described in Example 2, each of the vials containing particulate materials was replenished with 1.8 mL of 0.9% saline and placed on the rocking platform. After specified time interval, the supernatant was removed, filtered, and collected over a period of 43 hrs. Based on the amount of the peptide present in the supernatant, the amount of peptide bound to or released from the particles as was calculated. The study was performed on two separate days with the averages plotted showing cumulative peptide released vs. time (see graph in FIG. 1) (Note: the HA plus silicon was only performed at high dose). A BCA assay was utilized to determine peptide concentrations. The 60:40 granule was pH 8.8.
Referring now to FIG. 1, the release characteristics of specified materials tested. There was a burst of peptide released over a 4 hour period (supernatant was assessed hourly for the first four hours). At high loading doses (431 μg peptide/cc granule), the burst phase accounted for 12-22% of the total amount of peptide loaded. For intermediate loading doses (144 μg peptide/cc granule), the burst phase accounted for 25-35% of the total amount loaded. For low doses (43 μg peptide/cc granule), the burst phase accounted for 48-59% of the total amount loaded. Following the burst period, there was a slower, sustained release period.
The diamond on the graph represents 60% HAP and 40% TCP (high dose). The square represents 60% HAP and 40% TCP (medium dose). The triangle represents 20% HAP and 80% TCP (high dose). The X represents 20% HAP and 80% TCP (medium dose). The star represents 100% HAP plus Si (high dose). The filled-in circle represents 60% HAP and 40% TCP (low dose), and the plus sign represents 20% HAP and 80% TCP (low dose).

B2A2-K-NS [5] = assay: Binding of B2A2-K-NS to ceramic granules (BCA / micro BCA, subtraction method); assay type: physicochemical; details: high B2A2-K-NS coating concentrations, as described in Example 2
Protocol: Methods. 1.5 cc of granules were added to 1.8 mL of 0.9% saline or of peptide solution in 0.9% saline having a concentration of 35.9, 119.8, 359.3 μg/ml. The granule-peptide solutions were swirled vigorously for 15 seconds every 5 minutes for 20 minutes. After swirling, the supernatant was removed, filtered through 0.22 μm filter (low protein binding durapore (PVDF)) and assayed via Bicinchoninic Acid (BCA) or micro BCA assay (Pierce, Rockport, IL) for peptide content. The amount of peptide bound to the particles was obtained by subtraction method (the total peptide minus peptide present in the supernatant is equal to the amount of peptide bound on particulate materials.). The study was performed on two separate days and the results averaged below: […]

ectopic bone = assay: Ectopic bone induction by B2A2-K-NS coated granules with exogenous recombinant BMP-2, subcutaneous implant in rats; assay type: in vivo
Protocol: Sterile ceramic granules (Berkeley Advanced Biomaterials, Inc.; 60:40 (HA:TCP)) where coated by immersing them for 30 minutes in a solution containing B2A2-K-NS (0-, 2.5-, 10-, 25 μg/ml). Thereafter, the solution was removed by aspiration and the granules allowed to air dry. The coated granules were then placed in sterile gelatin capsules. […] The capsules were placed subcutaneously in young adult rats on the flanks in pre-prepared pouches and the surgical site closed with surgical clips. After 30 days, the implants were surgically removed, weighed, and palpated to assess hardness. The explants were then fixed with multiple changes into 70% ethanol.

[6] = test system: mouse pluripotent cell lines C2C12; assay: Alkaline phosphatase assay of B2A2-K-NS released from 20:80 granules, with or without BMP-2; assay type: cell-based; details: peptide released from 20:80 granules, 1.25- to 10 μg/ml, BMP-2 100 ng/ml, C2C12 cells, 1 day
Protocol: Methods: (A) Peptide was collected over a six hour period after release from 20:80 (as described in Example 3). The supernatants from all time points were mixed, frozen, and lyophilized for 48 hours. The peptide pellet was reconstituted in 1.5 ml saline and a BCA assay performed to determine peptide concentration.
(B) Alkaline phosphatase assays were performed using mouse pluripotent cell lines C2C12. Cells were plated in 96-well (1×10^4/well) plates in DMEM/F-12 Ham's containing 15% FBS, 1% L-gln, 1% NaPyr, and 1% gentamycin and allowed 24 hours to attach at 37 C, 5% CO2, 90% humidity. […] After 1 day, ALP activity was determined.

[7] = molecular target: T1, Type I, bovine-derived, dermal collagen sheets; assay: Binding of B2A2-K-NS to collagen sheets; assay type: physicochemical; details: 1,072 μg B2A2-K-NS/ml collagen sheet in 0.9% saline
Protocol: Type I, bovine-derived, dermal collagen sheets that were crosslinked with DHT and lyophilized were incubated with 1,072 μg B2A2-K-NS/ml collagen sheet in 0.9% saline solution. The binding efficiency was 61%, which was far lower than the binding efficiency on the Ca^2+ containing granules at high B2A2-K-NS coating concentrations (87-95% as described in Example 2). Lower binding efficiencies may be attributed to lower surface area as compared to that of the granules.

B2A2-K-NS [8] = assay: Binding of B2A2-K-NS to commercially available bone replacement grafts (ELISA, difference method); assay type: physicochemical; details: BRGs in 0.9% saline
Protocol: The next step was to determine whether the peptide was able to bind these BRGs. B2A2-K-NS (approximately 20 μg/ml) was incubated in one ml of 0.9% saline solution with 0.17 gram BRGs for 15 minutes. An ELISA assay was performed both on peptide solution without BRGs and the supernatant from the peptide+BRG. The difference between the peptide only reading and the supernatant from the peptide+BRG provided the amount of peptide bound.
The binding definitions are defined as follows: None is no detectable binding. High is binding>20 μg peptide/cc graft material. Intermediate is less than 20 μg peptide/cc graft material, but above non-detectable binding.

SIKVAVAAK(H-SIKVAVAA)xHxHxRKRKLERIAR-amide [LA2]
release of peptide from the scaffold (relative magnitude) [1]: most rapidly released

YRSRKYSSWYVALKRK(H-YRSRKYSSWYVALKR)HxHxHxRKRLDRIAR-amide [F2A4]
release of peptide from the scaffold (relative magnitude) [1]: does not release readily

AISMLYLDENEKVVLKK(AISMLYLDENEKVVLK)HxHxHxRKRLDRIARNH2 [B2A2-K-NS]
pH range of materials from which the peptide could release (B2A2-K-NS [2]): 6.3-10
cumulative amount of peptide released ([3]; after 1 hour): 11%
cumulative amount of peptide released ([3]; after 2 hours): 19%
cumulative amount of peptide released ([3]; after 3 hours): 23%
cumulative amount of peptide released ([3]; after 4 hours): 28%
burst phase release, share of the total amount of peptide loaded ([4]; high loading doses (431 μg peptide/cc granule)): 12-22%
burst phase release, share of the total amount loaded ([4]; intermediate loading doses (144 μg peptide/cc granule)): 25-35%
burst phase release, share of the total amount loaded ([4]; low doses (43 μg peptide/cc granule)): 48-59%
binding efficiency on the Ca2+ containing granules (B2A2-K-NS [5]): 87-95%
implants judged palpably hardened (ectopic bone; coated with 2.5 μg B2A2-K-NS, 1 μg recombinant BMP-2, rats, 30 days): 3/4
implants judged palpably hardened (ectopic bone; coated with 10 μg B2A2-K-NS, 1 μg recombinant BMP-2, rats, 30 days): 3/4
implants judged palpably hardened (ectopic bone; coated with 25 ug B2A2-K-NS, 1 μg recombinant BMP-2, rats, 30 days): 4/4
implants with histologically identifiable new bone (ectopic bone; coated with 25 ug B2A2-K-NS, 1 μg recombinant BMP-2, rats, 30 days, hematoxylin and eosin): 4/4
explant weight versus controls (no BMP-2, no B2A2-K-NS) (ectopic bone; rats, subcutaneous, 60:40 (HA:TCP) granules coated with 25 μg B2A2-K-NS, 1 μg recombinant BMP-2, 30 days): significantly higher weight
explant weight versus those containing BMP-2 but no B2A2-K-NS (ectopic bone; rats, subcutaneous, granules coated with 25 μg B2A2-K-NS, 1 μg recombinant BMP-2, 30 days): tended (p=0.11) to have a higher weight
effect on BMP-2 activity (ALP activity) [6]: increased BMP-2 activity
binding efficiency [7]: 61%
pH range of BRGs to which the peptide was found to bind (B2A2-K-NS [8]): 3.7-10.5
